Measurements taken from US11103519B2, “Quinone-methide precursors with bodipy chromophore, method of preparation, biological activity and application in fluorescent labelling” (Rudjer Boskovic Institute, priority 2016, dated 2021).
Where two headings read alike, the source gives them in different places.

Legend:
H 460 (lung carcinoma) = assay: Antiproliferative MTT assay, H 460; type: cell-based, human; conditions: 72 h incubation, read-out: IC50, the concentration that causes 50% growth inhibition
From the text: (§1) The absorbance is directly proportional to the cell viability.

[1] = system: HCT 116 (colon carcinoma); conditions: read-out: IC50, the concentration that causes 50% growth inhibition, HCT116, 72 h incubation, MTT
Method: The described assay was used to test the effects of test compounds on the proliferation of various human tumor cell lines, whereby cytostatic and cytotoxic effects on cells can be differentiated. The experiments were carried out on human cell lines, which were derived from 3 tumor types: MCF-7 (breast carcinoma), HCT 116 (colon carcinoma), H 460 (lung carcinoma).
Cell lines were cultured as monolayers and maintained in Dulbecco's modified Eagle medium (DMEM), supplemented with 10% fetal bovine serum (FBS), 2 mM L-glutamine, 100 U/ml penicillin and 100 μg/ml streptomycin in a humidified atmosphere with 5% CO2 at 37° C.
The cell lines were inoculated onto a series of standard 96-well microtiter plates on day 0, at 1×10^4 to 3×10^4 cells/ml, depending on the doubling times of the specific cell line. Test compounds were added next day to the cell lines in five consecutive 10-fold dilutions (10^−8 to 10^−4 M) and incubated for a further 72 hours. Working dilutions were freshly prepared on the day of testing. The solvent (DMSO) was also tested for eventual inhibitory activity by adjusting its concentration to be the same as in working concentrations.
For each cell line one of the plates was left in the dark, while the other was irradiated in a Luzchem reactor (6 lamps 350 nm, 5 min; or 6 lamps 420 nm, 15 min, visible light, 15 min) four hours after the addition of the test compounds and subsequently 24 h and 48 h after the first irradiation, as described above. After 72 hours of incubation the cell growth rate was evaluated by performing the MTT assay (Mossman, Methods Immunol, 1983, 65, 55-63), which detects dehydrogenase activity in viable cells. The MTT Cell Proliferation Assay is a colorimetric assay system, which measures the reduction of a tetrazolium component (MTT) into an insoluble formazan produced by mitochondria of viable cells. For this purpose the substance treated medium was discarded and MTT was added to each well in concentration of 20 μg/40 μl. After four hours of incubation the precipitates were dissolved in 160 μl of dimethylsulphoxide (DMSO). The absorbance (OD, optical density) was measured on a microplate reader at 570 nm. The absorbance is directly proportional to the cell viability. The percentage of growth (PG) of the cell lines was calculated according to one of the following two equations (according to the National Cancer Institute protocols, www.dtp.nci.nih.gov):
If (mean ODtest-mean ODtzero)≥0 then • PG=100×(mean ODtest-mean ODtzero)/(mean ODetrl-meanODtzero).
If (mean ODtest-mean ODtzero)<0 then: • PG=100×(mean ODtest-mean ODtzero)/ODtzero. where:
Mean ODtzero=the average of optical density measurements before exposure of cells to the test compound.
Mean ODtest=the average of optical density measurements after the desired period of time.
Mean ODetrl=the average of optical density measurements after the desired period of time with no exposure of cells to the test compound.
Each test point was performed in quadruplicate in three individual experiments. The results were expressed as IC50, a concentration necessary for 50% of proliferation inhibition. Each result is a mean value from three separate experiments. The IC50 measures the growth inhibitory power of the test agent and represents the concentration that causes 50% growth inhibition. […] Therefore, a “real” value for any of the response parameters is obtained only if at least one of the tested drug concentrations falls above, and likewise at least one falls below the respective reference value. If however, for a given cell line or test agent all of the tested concentrations produce PGs exceeding the respective reference level of effect (e.g. PG value of 50%), then the highest tested concentration is assigned as the default value. In the screening data report the default value is preceded by a “>” sign.

MCF-7 (breast carcinoma) = assay: Antiproliferative MTT assay, MCF-7; type: cell-based, human; conditions: 72 h incubation, read-out: IC50, the concentration that causes 50% growth inhibition
From the text: as §1

Substance	IC50 (H 460 (lung carcinoma); Not irrad.)	IC50 (H 460 (lung carcinoma); irradiated 350 nm 3 × 5 min)	IC50 (H 460 (lung carcinoma); irradiated 420 nm 3 × 15 min)	IC50 (H 460 (lung carcinoma); irradiated VIS 3 × 15 min)	IC50 ([1]; Not irrad.)	IC50 ([1]; irradiated 350 nm 3 × 5 min)	IC50 ([1]; irradiated 420 nm 3 × 15 min)	IC50 ([1]; irradiated VIS 3 × 15 min)	IC50 (MCF-7 (breast carcinoma); Not irrad.)	IC50 (MCF-7 (breast carcinoma); irradiated 350 nm 3 × 5 min)	IC50 (MCF-7 (breast carcinoma); irradiated 420 nm 3 × 15 min)	IC50 (MCF-7 (breast carcinoma); irradiated VIS 3 × 15 min)
4,4-difluoro-1,3,5,7-tetramethyl-8-[3-(N,N-dimethylammoniummethyl)-4-hydroxyphenyl]-4-bora-3a,4a-diaza-s-indacene hydrochloride [Example 4]	13 ± 0.2 µM	5 ± 3 µM	1 ± 0.1 µM	0.9 ± 0.2 µM	16 ± 1 µM	11 ± 2 µM	2 ± 0.4 µM	2 ± 0.1 µM	13 ± 0.1 µM	10 ± 0.6 µM	2 ± 0.2 µM	1.6 ± 0.01 µM
4,4-difluoro-1,5,7-trimethyl-343-(N,N-dimethylammoniummethyl)-4-hydroxyphenyl)-8-phenyl-4-bora-3a,4a-diaza-s-indacene hydrochloride [Example 7]	20 ± 5 µM			2 ± 0.7 µM	27 µM			2 µM	22 ± 12 µM			2 ± 0.7 µM
4,4-difluoro-8-[3-(N,N-dimethylammoniummethyl)-4-hydroxyphenyl]-4-bora-3a,4a-diaza-s-indacene hydrochloride [Example 2]	> 100 µM	> 100 µM	30 ± 18 µM	43 ± 6 µM	> 100 µM	> 100 µM	37 ± 7 µM	89 ± 6 µM	≥ 100 µM	≥ 100 µM	25 ± 6 µM	32 ± 25 µM
